This note sets out measurements from US20090281127A1, “Organic Compounds” (priority 2006, published 2009).

This assay deals with adenosine A2a receptor (Homo sapiens, UniProt P29274). Put plainly: adenosine A2a receptor agonist method of Murphree et al (Ki). Type of assay: binding. Conditions: method described by L. J. Murphree et al, Molecular Pharmacology 61, 455-462 (2002). The method, then: Compounds of formula I and their pharmaceutically acceptable salts are useful as pharmaceuticals. In particular, they activate the adenosine A2a receptor activation, i.e. they act as A2a receptor agonists.
adenosine A2a receptor, sequence (P29274 whole entry): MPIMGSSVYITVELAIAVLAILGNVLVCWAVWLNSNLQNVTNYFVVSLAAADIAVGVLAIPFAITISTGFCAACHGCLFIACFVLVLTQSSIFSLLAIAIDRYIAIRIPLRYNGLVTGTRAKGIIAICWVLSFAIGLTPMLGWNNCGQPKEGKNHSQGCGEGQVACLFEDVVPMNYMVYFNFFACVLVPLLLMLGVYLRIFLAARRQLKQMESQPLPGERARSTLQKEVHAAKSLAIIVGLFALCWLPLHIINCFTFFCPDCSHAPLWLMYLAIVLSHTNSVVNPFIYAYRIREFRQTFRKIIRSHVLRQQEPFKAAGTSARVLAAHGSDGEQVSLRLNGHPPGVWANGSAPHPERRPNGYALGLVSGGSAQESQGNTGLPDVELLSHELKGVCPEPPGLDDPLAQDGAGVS
Compounds of the Examples hereinbelow have K; values below 1.0 μM in the above method. For example, the compounds of Examples 6, 10 and 15 have Ki values of 0.004, 0.005, and 0.009 μM respectively.

Where a name gives a salt, the structure may show the parent alone.

As to `O=C(N[C@H]1C[C@@H](n2cnc3c(NCC(c4ccccc4)c4ccccc4)nc(N[C@H]4CCNC4)nc32)[C@H](O)[C@@H]1O)C1CCC1` [Example 6, Cyclobutanecarboxylic acid {(1S,2R,3S,4R)-4-[6-(2,2-diphenyl-ethylamino)-2-((S)-pyrrolidin-3-ylamino)-purin-9-yl]-2,3-dihydroxy-cyclopentyl}-amide hydrochloride], the affinity corresponds to a Ki of 4 nM.

The molecule `O=C(Nc1cccnc1)NC1CCN(c2nc(NCC(c3ccccc3)c3ccccc3)c3ncn(C4CC(NC(=O)C5CCC5)C(O)C4O)c3n2)C1` [Example 10, Cyclobutanecarboxylic acid ((1S,2R,3S,4R)-4-{6-(2,2-diphenyl-ethylamino)-2-[(R)-3-(3-pyridin-3-yl-ureido)-pyrrolidin-1-yl]-purin-9-y}-2,3-dihydroxy-cyclopentyl)-amide] came in with a Ki of 5 nM.

As for `O=C(N[C@H]1C[C@@H](n2cnc3c(NCC(c4ccccc4)c4ccccc4)nc(N[C@@H]4CCN(C(=O)NC5CCN(c6ccccn6)CC5)C4)nc32)[C@H](O)[C@@H]1O)C1CCC1` [Example 15, (R)-3-[9-[(1R,2S,3R,4S)-4-(cyclobutanecarbonyl-amino)-2,3-dihydroxy-cyclopentyl]-6-(2,2-diphenyl-ethylamino)-9H-purin-2-ylamino]-pyrrolidine-1-carboxylic acid (3,4,5,6-tetrahydro-2H-[1,2′]bipyridinyl-4-yl)-amide trifluoroacetate], the affinity, expressed as Ki, was 9 nM. This Ki is about 1.8-fold higher than that of the molecule before.

One may read the Ki as a dissociation constant, usually derived from enzyme kinetics or from competition with a known ligand. A lower Ki goes with higher affinity.
